The values below come from US11932606B2, “Anti-cancer/anti-fibrosis compounds” (THE REGENTS OF THE UNIVERSITY OF CALIFORNIA, priority 2017, dated 2024).

Format in all cases: cell-based
Experiment [1] concerns MOLM-14 AML cancer cell line. In words: Western blot of treated cells. The settings on record: MOLM-14, 30 nM up to 3 μM, 24 hours and 48 hours.
The subject of experiment [2] is Huh-7. Briefly: Cell viability assay (CellTiter-Glo, day 7). The settings on record: Homo sapiens, 168 h; Huh-7, day 7. How it is done:
(§1) CLL-119, Hela, HCT116, MCF7, Colo205, SW620, H2052, MSTO-211H, U-251, Colo 357, OE33, Huh-7, A549, BT474, A204 and H290 cells were acquired from UCSF Cell and Genome Engineering Core. A549-Brm3 and H2030-Brm3 were from UCSF thoracic oncology lab. All cells were plated (96-well) in triplicate at 500 cells per well for testing (n=3) with compound. Medium was changed once on day 3. On day 7, the CellTiter-Glo Luminescent Cell Viability Assay (Promega) was performed to measure the response. For cell viability assay, two independent experiments have been done.
A general note: ATP-based viability assays read luminescence as a measure of living cells.

Experiment [3] deals with A204. Briefly: Cell viability assay (CellTiter-Glo, day 7). The settings on record: Homo sapiens, 168 h; A204, day 7. As for the experimental part: as §1
For experiment [4], the system named is H2030-BRM3. Briefly: Cell viability assay (CellTiter-Glo, day 7). As to conditions: 168 h; H2030-BRM3, day 7. How it is done: as §1
Experiment [5] deals with SW620. In words: Cell viability assay (CellTiter-Glo, day 7). The settings on record: Homo sapiens, SW-620, 168 h; SW620, day 7. How it is done: as §1
Experiment [6] has as its system Colo357. In words: Cell viability assay (CellTiter-Glo, day 7). The settings on record: Homo sapiens, 168 h; Colo357, day 7. How it is done:
as §1

For experiment [7], the system named is H2052. In words: Cell viability assay (CellTiter-Glo, day 7). As to conditions: Homo sapiens, NCI-H2052, 168 h; H2052, day 7. As for the experimental part: as §1
The test system of experiment [8] is MCF7. In words: Cell viability assay (CellTiter-Glo, day 7). The settings on record: Homo sapiens, 168 h; MCF7, day 7. As for the experimental part: as §1
Experiment [9] concerns H290. In words: Cell viability assay (CellTiter-Glo, day 7). As to conditions: NCI-H290, 168 h; H290, day 7. As for the experimental part: as §1
For experiment [10], the system named is Hela. Briefly: Cell viability assay (CellTiter-Glo, day 7). The settings on record: Homo sapiens, 168 h. How it is done:
as §1

Experiment [11] deals with OE33. Briefly: Cell viability assay (CellTiter-Glo, day 7). As to conditions: Homo sapiens, 168 h; OE33, day 7. How it is done:
as §1

In experiment [12] the test system is BT474. In words: Cell viability assay (CellTiter-Glo, day 7). The settings on record: Homo sapiens, BT-474, 168 h; BT474, day 7. As for the experimental part: as §1

As to `Nc1nccc2c(Br)cc3cc(C(=O)[O-])ccc3c12.[Na+]` [Compound 29, Sodium 1-amino-5-bromobenzo[h]isoquinoline-8-carboxylate], the “level of p-STAT1(Ser727), p-STAT3(Tyr705), p-STAT5(Ser726) and YAP” value in experiment [1] is “down regulate”. The IC50 (as a rule, the midpoint of a concentration-inhibition curve) is below 1 µM in [2]; 1 to 10 µM in experiment [3]; below 1 µM in experiment [4]; 1 to 10 µM in [5]; 1 to 10 µM in experiment [6]; 1 to 10 µM in experiment [7]. For the same compound, the IC50 in [8] is 1 to 10 µM; in [9], 1 to 10 µM; in experiment [10] it was 1 to 10 µM; in experiment [11], below 1 µM; in experiment [12] it was 1 to 10 µM.
